Values joined by “and” are separate entries in the source; they are usually repeats but may differ in a detail not shown here. Identical values can stand only once. Toxic doses and inconclusive results are not listed.
Tested on: P388 leukemia ip, CD2F1 mice, survival T/C
Experiment: NCI In Vivo Anticancer Drug Screen. Data for tumor model P388 Leukemia (intraperitoneal) in CD2F1 (CDF1) mice
Details: endpoint: median survival time, higher = longer survival
How it was run: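 Mice carrying the transplanted tumor received test compound or vehicle. Survival was recorded in each group, and the value is the treated-group measurement divided by that of the vehicle-treated control group.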

[1] = dose: 200.0 mg/kg/injection, schedule: Q01DX001 (ip), vehicle: saline with Tween-80
[2] = dose: 60.0 mg/kg/injection, schedule: Q01DX005 (ip), vehicle: saline with Tween-80
[3] = dose: 120.0 mg/kg/injection, schedule: Q01DX005 (ip), vehicle: saline with Tween-80
[4] = dose: 240.0 mg/kg/injection, schedule: Q01DX005 (ip), vehicle: saline with Tween-80
[5] = dose: 50.0 mg/kg/injection, schedule: Q01DX009 (ip), vehicle: saline with Tween-80
[6] = dose: 100.0 mg/kg/injection, schedule: Q01DX009 (ip), vehicle: saline with Tween-80
[7] = dose: 200.0 mg/kg/injection, schedule: Q01DX009 (ip), vehicle: saline with Tween-80
[8] = dose: 6.25 mg/kg/injection, schedule: Q01DX009 (ip), vehicle: Klucel (hydroxypropylcellulose) (HPC)
[9] = dose: 12.5 mg/kg/injection, schedule: Q01DX009 (ip), vehicle: Klucel (hydroxypropylcellulose) (HPC)
[10] = dose: 25.0 mg/kg/injection, schedule: Q01DX009 (ip), vehicle: Klucel (hydroxypropylcellulose) (HPC)
[11] = dose: 50.0 mg/kg/injection, schedule: Q01DX009 (ip), vehicle: Klucel (hydroxypropylcellulose) (HPC)
[12] = dose: 100.0 mg/kg/injection, schedule: Q01DX009 (ip), vehicle: Klucel (hydroxypropylcellulose) (HPC)
[13] = dose: 12.5 mg/kg/injection, schedule: Q01DX009 (ip), vehicle: saline
[14] = dose: 100.0 mg/kg/injection, schedule: Q01DX001 (ip), vehicle: saline
[15] = dose: 200.0 mg/kg/injection, schedule: Q01DX001 (ip), vehicle: saline
[16] = dose: 400.0 mg/kg/injection, schedule: Q01DX001 (ip), vehicle: saline
[17] = dose: 60.0 mg/kg/injection, schedule: Q01DX005 (ip), vehicle: Klucel (hydroxypropylcellulose) (HPC)
[18] = dose: 120.0 mg/kg/injection, schedule: Q01DX005 (ip), vehicle: Klucel (hydroxypropylcellulose) (HPC)
[19] = dose: 100.0 mg/kg/injection, schedule: Q01DX001 (ip), vehicle: saline with Tween-80
[20] = dose: 400.0 mg/kg/injection, schedule: Q01DX001 (ip), vehicle: saline with Tween-80
[21] = dose: 3.12 mg/kg/injection, schedule: Q01DX009 (ip), vehicle: saline
[22] = dose: 12.5 mg/kg/injection, schedule: Q01DX005 (ip), vehicle: Klucel (hydroxypropylcellulose) (HPC)
[23] = dose: 25.0 mg/kg/injection, schedule: Q01DX005 (ip), vehicle: Klucel (hydroxypropylcellulose) (HPC)
[24] = dose: 50.0 mg/kg/injection, schedule: Q01DX005 (ip), vehicle: Klucel (hydroxypropylcellulose) (HPC)

Cn1c(=O)c2nc(-c3ccc(Cl)c(Cl)c3)c(-c3ccc(Cl)c(Cl)c3)nc2n(C)c1=O
T/C (dose: 3.13 mg/kg/injection, schedule: Q01DX001 (ip), vehicle: saline with Tween-80): 100 % of control | T/C (dose: 6.25 mg/kg/injection, schedule: Q01DX001 (ip), vehicle: saline with Tween-80): 104 % of control | T/C (dose: 12.5 mg/kg/injection, schedule: Q01DX001 (ip), vehicle: saline with Tween-80): 95 % of control | T/C (dose: 25.0 mg/kg/injection, schedule: Q01DX001 (ip), vehicle: saline with Tween-80): 96 % of control | T/C (dose: 50.0 mg/kg/injection, schedule: Q01DX001 (ip), vehicle: saline with Tween-80): 93 % of control | T/C [1]: 91 % of control

N#CC(NCCNC(C#N)c1ccccc1)c1ccccc1 (configuration not stated)
T/C [2]: 96 % of control | T/C [3]: 90 % of control | T/C [4]: 88 % of control

N#CC1C(=O)NC(=O)C(C#N)C1C1C(=O)NC2CCCCC21 (configuration not stated)
T/C [5]: 114 % of control | T/C [6]: 99 % of control | T/C [7]: 112 % of control

O=C1CCCCC(=O)CS(=O)(=O)C1
T/C [5]: 110 % of control | T/C [6]: 107 % of control | T/C [7]: 103 % of control

CC1(C)CCCC(C)(C2CCC3(C)C2C(O)CC2C4(C)CCC(O)C(C)(C)C4C(O)CC23C)O1 (configuration not stated)
T/C [8]: 101 % of control | T/C [9]: 99 % of control | T/C [10]: 96 % of control | T/C [11]: 92 % of control | T/C [12]: 92 % of control

CC[CH2][Sn](=[O])[c]1ccccc1
T/C [13]: 99 % of control | T/C (dose: 25.0 mg/kg/injection, schedule: Q01DX009 (ip), vehicle: saline): 105 % of control | T/C (dose: 50.0 mg/kg/injection, schedule: Q01DX009 (ip), vehicle: saline): 98 % of control and 123 % of control | T/C (dose: 200.0 mg/kg/injection, schedule: Q01DX009 (ip), vehicle: saline): 96 % of control

CC1=CCC(C(C)C)C=C1 (configuration not stated)
T/C [6]: 100 % of control | T/C (dose: 100.0 mg/kg/injection, schedule: Q04DX003 (ip), vehicle: saline): 105 % of control | T/C (dose: 200.0 mg/kg/injection, schedule: Q04DX003 (ip), vehicle: saline): 100 % of control | T/C (dose: 400.0 mg/kg/injection, schedule: Q04DX003 (ip), vehicle: saline): 105 % of control

C=C1C[C@](OC)([C@H](O)C(=O)N[C@@H](OC)[C@@H]2C[C@@H](O)C(C)(C)[C@@H](C[C@@H](COC)OC)O2)O[C@H](C)[C@@H]1C
T/C (dose: 6.2 micrograms/kg/injection, schedule: Q01DX005 (ip), vehicle: Klucel (hydroxypropylcellulose) (HPC)): 153 % of control | T/C (dose: 12.5 micrograms/kg/injection, schedule: Q01DX005 (ip), vehicle: Klucel (hydroxypropylcellulose) (HPC)): 152 % of control | T/C (dose: 25.0 micrograms/kg/injection, schedule: Q01DX005 (ip), vehicle: Klucel (hydroxypropylcellulose) (HPC)): 161 % of control and 162 % of control | T/C (dose: 50.0 micrograms/kg/injection, schedule: Q01DX005 (ip), vehicle: Klucel (hydroxypropylcellulose) (HPC)): 152 % of control

C=C1CC2(CCCCC2C)OC1=O (configuration not stated)
T/C [14]: 101 % of control | T/C [15]: 101 % of control | T/C [16]: 100 % of control

O=C(CC(NC(=O)OCc1ccccc1)C(=O)O)OCc1ccccc1 (configuration not stated)
T/C (dose: 100.0 mg/kg/injection, schedule: Q04DX003 (ip), vehicle: saline sonified): 110 % of control | T/C (dose: 200.0 mg/kg/injection, schedule: Q04DX003 (ip), vehicle: saline sonified): 105 % of control

CN(C)C=C1C=c2cc(C(=O)c3ccccc3)c(=O)c(C(=O)c3ccccc3)cc2=C1
T/C [14]: 108 % of control | T/C [15]: 108 % of control | T/C [16]: 97 % of control

C/C=C(\C)C(=O)OC1CC(OC(=O)/C(C)=C/C)C2(C)C3C(=O)C=C(C)C2C3C1(C)C (configuration not stated)
T/C [9]: 90 % of control | T/C [10]: 96 % of control | T/C [11]: 96 % of control | T/C [12]: 100 % of control

O=C1NC(=O)C2C(=O)NC(=O)C1C21CCc2ccccc21 (configuration not stated)
T/C [2]: 97 % of control | T/C [3]: 86 % of control

CCCCCC(=O)C(C)C1(C(=O)OC)NC(=S)NC(=O)C1C#N (configuration not stated)
T/C [17]: 105 % of control | T/C [18]: 98 % of control | T/C (dose: 240.0 mg/kg/injection, schedule: Q01DX005 (ip), vehicle: Klucel (hydroxypropylcellulose) (HPC)): 97 % of control

CN1C2=C(C(=O)CC2)C(c2ccccc2)C2=C1CCC2=O
T/C [19]: 96 % of control | T/C [1]: 96 % of control | T/C [20]: 96 % of control

CSCCC([NH-])C(=O)O.CSCCC([NH-])C(=O)O.[Cu+2] (configuration not stated)
T/C [21]: 102 % of control | T/C [8]: 94 % of control | T/C (dose: 6.25 mg/kg/injection, schedule: Q01DX009 (ip), vehicle: saline): 94 % of control | T/C [9]: 94 % of control | T/C [13]: 100 % of control

COC(=O)n1sc(SC)nc1=N
T/C [22]: 88 % of control | T/C [23]: 114 % of control | T/C [24]: 100 % of control and 114 % of control

CCOC(=O)C(C)(C)Oc1ccc(N=[N+]=[N-])cc1
T/C [2]: 100 % of control | T/C [3]: 104 % of control | T/C [4]: 109 % of control

COc1cccc(OC)c1OCCBr
T/C [5]: 103 % of control | T/C [6]: 98 % of control | T/C [7]: 100 % of control

Cc1[nH]c2c(-c3ccccc3)c3cc(Cl)ccc3nc2c1C(=O)O
T/C [10]: 92 % of control | T/C [11]: 89 % of control | T/C [12]: 86 % of control

COc1ccc2c3c1O[C@H](c1ccc(O)cc1)[C@H]3[N+](C)(C)CC2
T/C (dose: 6.25 mg/kg/injection, schedule: Q01DX005 (ip), vehicle: Klucel (hydroxypropylcellulose) (HPC)): 107 % of control | T/C [22]: 110 % of control | T/C [23]: 110 % of control | T/C [24]: 103 % of control

COC(=O)Cn1/c(=N\N=C(/C)c2ccc(OC)cc2)sc2ccccc21
T/C [19]: 101 % of control | T/C [1]: 117 % of control | T/C [20]: 92 % of control

COc1ccc(-c2cc[n+]([O-])c(C)c2C)c(OC)c1OC
T/C [5]: 94 % of control | T/C [6]: 96 % of control | T/C [7]: 92 % of control

C=C1CCN(c2ccc(C)cc2)C1=O
T/C (dose: 4.0 mg/kg/injection, schedule: Q01DX009 (ip), vehicle: saline + alcohol): 100 % of control | T/C (dose: 8.0 mg/kg/injection, schedule: Q01DX009 (ip), vehicle: saline + alcohol): 100 % of control | T/C (dose: 16.0 mg/kg/injection, schedule: Q01DX009 (ip), vehicle: saline + alcohol): 96 % of control | T/C (dose: 64.0 mg/kg/injection, schedule: Q01DX009 (ip), vehicle: saline + alcohol): 94 % of control

Cc1csc2nc(-c3ccco3)nn12
T/C [17]: 107 % of control | T/C [18]: 107 % of control

CN=C(c1ccc(NC(=O)c2ccc(C(=O)Nc3ccc(C(=NC)N(C)C4CCCCC4)cc3)cc2)cc1)N(C)C1CCCCC1
T/C (dose: 0.78 mg/kg/injection, schedule: Q01DX005 (ip), vehicle: Klucel (hydroxypropylcellulose) (HPC)): 104 % of control | T/C (dose: 1.56 mg/kg/injection, schedule: Q01DX005 (ip), vehicle: Klucel (hydroxypropylcellulose) (HPC)): 101 % of control | T/C (dose: 3.12 mg/kg/injection, schedule: Q01DX005 (ip), vehicle: Klucel (hydroxypropylcellulose) (HPC)): 104 % of control

CN1NC1(C)C (configuration not stated)
T/C (dose: 50.0 mg/kg/injection, schedule: Q04DX002 (ip), vehicle: saline): 100 % of control | T/C (dose: 100.0 mg/kg/injection, schedule: Q04DX002 (ip), vehicle: saline): 110 % of control | T/C (dose: 200.0 mg/kg/injection, schedule: Q04DX002 (ip), vehicle: saline): 98 % of control

CC(C(=O)O)c1ccc2c(c1)Cc1ccccc1-2 (configuration not stated)
T/C (dose: 12.5 mg/kg/injection, schedule: Q01DX009 (ip), vehicle: saline with Tween-80): 108 % of control | T/C (dose: 25.0 mg/kg/injection, schedule: Q01DX009 (ip), vehicle: saline with Tween-80): 106 % of control | T/C [5]: 105 % of control and 86 % of control

C[N+](C)([O-])CCCNc1c2ccccc2nc2cccc([N+](=O)[O-])c12
T/C (dose: 0.79 mg/kg/injection, schedule: Q01DX009 (ip), vehicle: saline): 108 % of control | T/C (dose: 1.56 mg/kg/injection, schedule: Q01DX009 (ip), vehicle: saline): 110 % of control | T/C [21]: 117 % of control and 118 % of control
